Measured values published in patent publication US20180116993A1, “MODULATORS OF FARNESOID X RECEPTOR AND METHODS FOR THE USE THEREOF” (XIAMEN UNIVERSITY, priority 2015, published 2018).
Read-outs that look alike come from different tables or passages of the source. Marks after values point to notes of the source that are not given here.

What was measured:
[1] = tested on: human cervical carcinoma Hela cells; assay: MTT cell viability assay, Hela; assay type: cell-based; settings: 48 h, read-out: Cell viability as a percentage of the cells treated with DMSO, Hela
Procedure, shortened: (§1)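 Viability, reported relative to DMSO-treated cells (%), comes from an MTT colorimetric assay after exposure to 20 uM or 40 uM compound. Cells are maintained in DMEM containing 10% fetal bovine serum.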

[2] = molecular target: T1, FXR ligand binding domain (LBD) (Homo sapiens, UniProt Q96RI1); assay: AlphaScreen assay: FXR LBD recruitment of coregulator peptide motifs (SRC2-3, SRC1-2); assay type: biochemical
T1 construct: made in house
T1 sequence (Q96RI1 262-486 limits assumed): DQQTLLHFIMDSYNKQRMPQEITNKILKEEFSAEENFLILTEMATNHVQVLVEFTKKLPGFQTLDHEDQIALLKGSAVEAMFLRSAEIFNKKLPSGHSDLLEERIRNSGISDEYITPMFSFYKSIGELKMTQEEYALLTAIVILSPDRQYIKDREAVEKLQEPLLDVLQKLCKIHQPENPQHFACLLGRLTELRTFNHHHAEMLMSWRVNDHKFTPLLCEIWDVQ

[3] = tested on: human hepatoma HepG2 cells; assay: MTT cell viability assay, HepG2; assay type: cell-based; settings: 48 h, read-out: Cell viability as a percentage of the cells treated with DMSO, HepG2
Procedure, shortened: as §1

[4] = tested on: RA-resistant human colon cancer HCT116 cells; assay: MTT cell viability assay, HCT116; assay type: cell-based; settings: 48 h, read-out: Cell viability as a percentage of the cells treated with DMSO, HCT116; for viability at 20 µM: HCT-116, 20 uM; for viability at 40 µM: HCT-116, 40 uM
Procedure, shortened: as §1

full-length FXR = molecular target: T2, full-length FXR (Homo sapiens, UniProt Q96RI1); assay: Cell-based FXR transactivation, EcRE luciferase reporter in COS-7 cells; settings: for Cell-based FXR transactivation Fold changes by 5 μM compound: positive: induction, minus: repression; for EC50 / fold induction at 5 µM: EcRE luciferase reporter; for Cell-based FXR transactivation Fold changes by 5 μM compound / fold induction at 5 µM: 5 μM compound
T2 construct: The cells were co-transfected with plasmids encoding full-length FXR and the cognate luciferase reporter EcRE-Luc; expressed in transfected cells; host or cells: COS-7
T2 sequence (Q96RI1 1-486): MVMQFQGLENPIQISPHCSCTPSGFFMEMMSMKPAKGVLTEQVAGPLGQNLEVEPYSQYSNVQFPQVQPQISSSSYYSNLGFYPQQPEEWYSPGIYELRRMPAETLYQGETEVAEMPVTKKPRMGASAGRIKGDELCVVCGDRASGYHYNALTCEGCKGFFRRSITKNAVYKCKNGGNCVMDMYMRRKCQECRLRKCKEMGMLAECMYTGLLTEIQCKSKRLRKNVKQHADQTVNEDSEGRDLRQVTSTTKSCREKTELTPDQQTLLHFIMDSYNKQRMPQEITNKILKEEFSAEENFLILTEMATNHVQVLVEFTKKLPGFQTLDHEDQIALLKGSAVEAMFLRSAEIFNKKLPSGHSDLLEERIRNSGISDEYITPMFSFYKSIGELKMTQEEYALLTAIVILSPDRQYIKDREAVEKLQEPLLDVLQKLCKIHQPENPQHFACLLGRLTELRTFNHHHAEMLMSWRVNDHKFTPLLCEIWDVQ
Procedure, shortened: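 COS-7 cells were transiently cotransfected with full-length FXR, EcRE-Luc reporter and a renilla control. Ligands were added 5 h after transfection, and cells were harvested 24 h later. Firefly luciferase was normalized to renilla in a dual-luciferase read-out.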

db/db mice = assay: Hepatic triglyceride, liver histology, serum ALT and ALP in high-fat diet fed db/db mice; assay type: in vivo, mouse; settings: for Hepatic triglyceride (mM/g): vehicle 148 ± 14; for Serum ALP (U/L): vehicle 129 ± 15
Procedure, shortened: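 High-fat diet fed db/db mice aged 8-10 weeks dosed 10 mg/kg compound once daily for 10 days. Liver sections stained with H&E and 0.3% oil red O; hepatic triglyceride measured by tissue assay kit; serum ALP and ALT activities measured by kit.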

[5] = tested on: human colorectal adenocarcinoma HCT15 cells; assay: MTT cell viability assay, HCT15; assay type: cell-based; settings: 48 h, read-out: Cell viability as a percentage of the cells treated with DMSO, HCT15; for viability at 20 µM: HCT-15, 20 uM; for viability at 40 µM: HCT-15, 40 uM
Procedure, shortened: as §1

[6] = tested on: human breast cancer MCF7 cells; assay: MTT cell viability assay, MCF-7; assay type: cell-based; settings: 48 h, read-out: Cell viability as a percentage of the cells treated with DMSO, MCF-7
Procedure, shortened: as §1

[7] = SRC1-2 peptide, Table 2, read-out: EC50 (μM) of FXR binding by AlphaScreen assay recruit SRC1-2
[8] = SRC2-3 peptide, Table 2, read-out: EC50 (μM) of FXR binding by AlphaScreen assay recruit SRC2-3
[9] = 10 mg/kg for 10 days, vehicle 377 ± 48, Table 15
[10] = 10 mg/kg once daily for 10 days
[11] = 10 mg/kg once daily for 10 days, vehicle 377 ± 48, Table 17
[12] = SRC1-2 peptide, Table 1, read-out: EC50 (μM) of FXR binding by AlphaScreen assay recruit SRC1-2
[13] = SRC2-3 peptide, Table 1, read-out: EC50 (μM) of FXR binding by AlphaScreen assay recruit SRC2-3

EC50 [2, 7] [µM] | EC50 [2, 8] [µM] | Cell-based FXR transactivation Fold changes by 5 μM compound (full-length FXR; Table 2) | EC50 (full-length FXR; Table 2) [nM] | EC50 [2, 12] [µM] | EC50 [2, 13] [µM] | fold induction at 5 µM (full-length FXR; Table 1) | EC50 (full-length FXR; Table 1) [nM] | SMILES | viability at 20 µM [1] [%] | viability at 40 µM [1] [%] | viability at 20 µM [3] [%] | viability at 40 µM [3] [%] | viability at 20 µM [4] [%] | viability at 40 µM [4] [%] | viability at 20 µM [5] [%] | viability at 40 µM [5] [%] | viability at 20 µM [6] [%] | viability at 40 µM [6] [%] | further results
< 1 | < 1 | >10 | < 1000 |  |  |  |  | Cc1cc(C(=O)OC2CC3CCC2(C)C3(C)C)ccc1N (centres unmarked) [XD-4, 1,7,7-trimethyl-bicyclo[2.2.1]-heptan-2-yl 4-amino-3-methylbenzoate] | 95 ± 4 | 36 ± 2 | 90 ± 5 | 42 ± 1 | 81 ± 2 | 27 ± 1 | 79 ± 2 | 41 ± 3 | 100 ± 9 | 23 | 
< 1 | < 1 | >10 | < 1000 |  |  |  |  | CC1(C)C2CCC1(C)C(OC(=O)c1ccc(N)cc1)C2 (centres unmarked) [XD-5, 1,7,7-trimethyl-bicyclo[2.2.1]-heptan-2-yl 4-aminobenzoate] | 93 ± 4 | 46 ± 3 | 95 ± 1 | 40 ± 1 | 88 ± 2 | 30 ± 3 | 80 ± 4 | 30 ± 4 | 100 ± 3 | 20 | 
 |  |  |  | < 1 | < 1 | > 10 | < 1000 | CC1(C)[C@@H]2CC[C@@]1(C)[C@@H](OC(=O)c1ccc(O)cc1)C2 [Tschimgine] | 94 | 31 ± 4 | 97 | 30 ± 3 | 93 ± 4 | 25 ± 5 | 97 ± 6 | 31 ± 2 | 93 | 32 | 
 |  |  |  | < 1 | < 1 | > 10 | < 1000 | COc1cc(C(=O)O[C@H]2C[C@H]3CC[C@]2(C)C3(C)C)ccc1O [Tschimganine] | 98 ± 2 | 97 ± 4 | 100 ± 1 | 97 ± 3 | 97 ± 1 | 90 ± 4 | 100 ± 1 | 80 ± 9 | 100 ± 3 | 99 ± 3 | 

The remaining lines, values behind:

SMILES | EC50 [2, 7] [µM] | EC50 [2, 8] [µM] | Cell-based FXR transactivation Fold changes by 5 μM compound (full-length FXR; Table 2) | EC50 (full-length FXR; Table 2) [nM] | EC50 [2, 12] [µM] | EC50 [2, 13] [µM] | fold induction at 5 µM (full-length FXR; Table 1) | EC50 (full-length FXR; Table 1) [nM] | viability at 20 µM [1] [%] | viability at 40 µM [1] [%] | viability at 20 µM [3] [%] | viability at 40 µM [3] [%] | viability at 20 µM [4] [%] | viability at 40 µM [4] [%] | viability at 20 µM [5] [%] | viability at 40 µM [5] [%] | viability at 20 µM [6] [%] | viability at 40 µM [6] [%] | further results
CC1(C)C2CCC1(C)C(OC(=O)C1CCC(O)CC1)C2 (centres unmarked) [XD-20, 1,7,7-trimethyl-bicyclo[2.2.1]-heptan-2-yl 4-hydroxy-cyclohexane-carboxylate] | 1 to 10 | 1 to 10 | 6 | 1000 to 10000 |  |  |  |  | 100 ± 5 | 96 ± 1 | 100 ± 5 | 100 ± 2 | 79 ± 2 | 70 ± 7 | 100 ± 4 | 84 ± 4 | 85 | 82 ± 1 | Hepatic triglyceride (mM/g) (db/db mice; 10 mg/kg for 10 days): 60 ± 15^b mM/g; Serum ALT (U/L) (db/db mice; [9]): 115 ± 29 ^a U/L; Serum ALP (U/L) (db/db mice; [10]): 73 ± 19^a U/L; Serum ALT (U/L) (db/db mice; [11]): 115 ± 29^a U/L
C/C1=C\CCC(C)(O)/C=C/C(C(C)C)C(OC(=O)c2ccc(O)cc2)C1 (centres unmarked) [Feroline] |  |  |  |  | < 1 | < 1 | > 10 | < 1000 | 83 | 67 ± 3 | 84 | 65 ± 3 | 100 ± 5 | 80 ± 2 | 100 ± 2 | 76 ± 6 | 92 ± 13 | 86 ± 12 | 
Cc1cc(C(=O)OC2CCC3CCCCC3C2)ccc1[N+](=O)[O-] (centres unmarked) [XD-35, decahydro-naphthalen-2-yl 3-methyl-4-nitro-benzoate] |  | 1 to 10 | 2 | 1000 to 10000 |  |  |  |  | 94 ± 2 | 93 ± 2 | 100 ± 2 | 93 ± 2 | 95 ± 2 | 93 ± 2 | 100 ± 2 | 93 ± 2 | 100 ± 2 | 100 ± 2 | 
Nc1ccc(C(=O)OC2CCCCCCC2)cc1 [XD-16, cyclooctyl 4-aminobenzoate] | < 1 | < 1 | 5 | < 1000 |  |  |  |  |  |  |  |  |  |  |  |  |  |  | Hepatic triglyceride (mM/g) (db/db mice; 10 mg/kg for 10 days): 81 ± 23 ^a mM/g; Serum ALT (U/L) (db/db mice; [9]): 104 ± 33 ^a U/L; Serum ALP (U/L) (db/db mice; [10]): 88 ± 10^b U/L; Serum ALT (U/L) (db/db mice; [11]): 104 ± 33^a U/L
O=C(OC1CCCCCCC1)c1ccc(O)cc1 [XD-10, cyclooctyl 4-hydroxybenzoate] |  |  |  |  | < 1 | < 1 | 8 | < 1000 | 90 ± 4 | 40 ± 3 | 90 ± 3 | 35 ± 1 | 92 ± 6 | 30 ± 4 | 60 ± 4 | 41 ± 4 | 93 ± 7 | 28 | 
Nc1ccc(C(=O)OC2CCC3CCCCC3C2)cc1 (centres unmarked) [XD-23, decahydro-naphthalen-2-yl 4-aminobenzoate] | < 0.5 | < 0.5 | −30 | < 1000 |  |  |  |  | 100 ± 2 | 95 ± 3 | 100 ± 2 | 100 ± 2 | 75 ± 2 | 72 ± 2 | 81 ± 2 | 48 ± 2 | 100 ± 2 | 98 ± 2 | 
COc1cc(C(=O)OC2C/C(C)=C/CC/C(C)=C/[C@@H](O)[C@H]2C(C)C)ccc1O (some centres unmarked) [Tschimganidine] |  |  |  |  | < 1 | < 1 | > 10 | < 1000 | 96 | 30 ± 5 | 94 | 48 ± 4 | 95 ± 4 | 40 ± 7 | 85 ± 9 | 60 ± 10 | 100 ± 4 | 85 | 
COc1cc(C(=O)OC2CCC3CCCCC3C2)ccc1[N+](=O)[O-] (centres unmarked) [XD-36, decahydro-naphthalen-2-yl 3-methoxy-4-nitrobenzoate] |  | 1 to 10 | 3 | 1000 to 10000 |  |  |  |  | 93 ± 3 | 85 ± 3 | 100 ± 3 | 81 ± 3 | 93 ± 3 | 91 ± 3 | 100 ± 3 | 92 ± 3 | 100 ± 3 | 87 | 
